The source of these data is US20260325546A1, “METHODS OF TREATMENT USING DRY POWDER COMPOSITIONS OF TREPROSTINIL PRODRUGS” (Insmed Incorporated, priority 2024, published 2026).

The nature of data set [1]: Nonclinical studies of TP: conversion of prodrug to treprostinil. Format: in vitro ADME. The following applies: nonclinical (in vitro and in vivo). From the text: (§1) Treprostinil palmitil (TP) is a hexadecyl ester prodrug of treprostinil (TRE). In the lung, TP is hydrolyzed by esterases to TRE and hexadecanol.
A short description of data set [2]: Preclinical safety / toxicology of TP. Format: in vivo. The following applies: nonclinical.
Source text: as §1

The subject of a further data set is rodent model of PAH. Briefly: Rodent model of PAH. Format: in vivo. The following applies: inhibits associated adverse pathology and pathophysiology.
Source text: as §1

Data set [3] relates to subjects with pulmonary hypertension, including pulmonary arterial hypertension. Briefly: Phase 2 safety and efficacy study in subjects with pulmonary hypertension. Format: in vivo, human. As for the experimental part: In a Phase 2 safety and efficacy study, the following doses of were investigated in subjects with pulmonary hypertension, including pulmonary arterial hypertension: 80 μg, 160 μg, 240 μg, 320 μg, 400 μg, 480 μg, and 640 μg. In this study, patients were administered a starting dose of 80 μg of the TPIP and the dose was titrated up to 640 μg according to FIG. 2.

The next data set has as its system healthy adults. Description: Phase I single-dose safety and tolerability study of TPIP in healthy adults. Format: in vivo, human. As for the experimental part:
Specifically, in a Phase I safety, tolerability, and PK study, healthy adults were administered single doses of 112.5 μg, 225 μg, 450 μg, and 675 μg of a compound of Formula (II).

A short description of data set [4]: Nonclinical studies of TP: delivery / PK and PD profile. Format: in vivo.
Source text: as §1

Take `CCCCCCCCCCCCCCCCOC(=O)COc1cccc2c1C[C@H]1C[C@@H](O)[C@H](CC[C@@H](O)CCCCC)[C@H]1C2` [treprostinil palmitil]: the conversion to treprostinil entry in data set [1] is “converted from the prodrug to the active drug, treprostinil”. The preclinical safety result in data set [2] is reported as “did not demonstrate concerning preclinical safety or toxicological findings”. In addition, the “efficacy in PAH model” value in the data set with rodent model of PAH was “efficacious in a rodent model of PAH”. The tolerability entry in data set [3] (80 μg to 640 μg, titrated) is “well tolerated”. Moreover, in data set [3] (640 μg, highest dose administered in a clinical trial), the “tolerability of 640 μg” value is “well tolerated”. The “efficacy at higher doses” value in data set [3] (higher doses) is listed as “promising efficacy”. In addition, the “serious or severe TEAEs (printed TEALs)” value with healthy adults (single doses 112.5, 225, 450, 675 μg) is recorded as “no serious or severe TEALs were observed”. In addition, in the data set with healthy adults (single doses 112.5, 225, 450, 675 μg / highest doses tested), the safety and tolerability entry is “safe and well-tolerated”. In data set [4], the delivery of treprostinil result is “sustained delivery of treprostinil to the lungs and systemic circulation”.
